Patent US6040149A, “Assay for identifying agents which act on the ceramide-activated protein kinase, kinase suppressor of ras, and methods of using said agents” (priority 1997, dated 2000)

Assays:
EL-4 cells = assay: Sphingomyelin and ceramide levels in intact EL-4 cells; type: cell-based, murine
Procedure: IL-1β effects on sphingomyelin levels in EL4 cells. Time course (A) and dose response (B). Cells were grown to growth arrest (1-1.5×10^6 cells ml^-1) in DME/Ham's F12 medium (1:1, v/v) containing 10% horse serum and for 48 hours [^3 H]choline (1 μCi ml^-1). On the day of an experiment, cells were resuspended back into the same medium at 10×10^6 cells ml^-1 and stimulated with 40 ng ml^-1 IL-1β for the indicated times (A) or for 30 minutes with increasing concentrations of IL-1β (B). Human IL-1β may be obtained using methods well known to those skilled in the art. Reactions were terminated with CHCl3 :CH3 OH:HCl (100:100:1) containing 10 mM EDTA (82). Lipids in the organic phase extract were dried under N2 and subjected to mild alkaline hydrolysis (0.1 M methanolic KOH for 1 hour at 37° C.) to remove glycerophospholipids. Sphingomyelin was resolved by thin-layer chromatography (TLC) using CHCl3 :CH3 OH:CH3 COOH:H2 O (60:30:8:5) as solvent, identified by iodine vapor staining, and quantified by liquid scintillation spectrometry. As previously reported, the use of [^3 H]choline as a measure of sphingomyelin content was validated by simultaneous phospholipid phosphorus measurements. Each value represents the mean±SEM of triplicate determinations from four experiments in (A), and one representative of four similar studies performed in triplicate in (B).
Effect of IL-1β on ceramide levels in EL-4 cells. Cells were stimulated as in FIG. 12 with IL-1β (40 ng ml^-1) and ceramide contained within the organic phase extract quantified enzymatically using the E. coli diacylglycerol kinase reaction. Lipids were resolved by TLC using CHCl3 :CH3 OH:CH3 COOH (65/15/5) as solvent, autoradiographed and quantified by liquid scintillation spectrometry. Each value represents the mean±SEM of triplicate determinations from 10 experiments.
The murine thymoma EL-4 cell line is a well-defined IL-1 responsive cell line that expresses functional IL-1 receptors. Upon stimulation with IL-1, these cells up-regulate the IL-2 receptor and secrete IL-2 [62]. Initial studies were designed to investigate the effects of IL-1β on cellular sphingomyelin content. Cells, grown in Dulbecco's Modified Eagle's (DME)/Ham's F-12 medium containing 10% horse serum and [^3 H]choline (1 μCi ml^-1), were resuspended back into the same medium at 10×10^6 cells ml^-1 and stimulated with IL-1β. IL-1β is commercially available.

YT cells = assay: Ceramide generation in YT cells (preliminary); type: cell-based, human
sphingomyelin pathway = assay: Sphingomyelin, ceramide and CAP kinase activity in EL-4 cell-free system; type: biochemical, murine (EL-4 cells); conditions: IL-1β 10 ng ml^-1
Procedure: IL-1β effects on sphingomyelin and ceramide levels (A) and ceramide-activated protein kinase activity (B) in a cell-free system. […] Thereafter, supernates (300 μg incubation^-1 in 25 μl) were added to a reaction mixture (total volume 250 μl) as described in FIG. 14. For studies measuring lipid levels, incubations were stopped by extraction of lipids into an organic phase and resolved as described in FIGS. 12 and 13. For studies measuring kinase activity, incubations contained EGFR peptide and [^32 P]ATP, and phosphorylated peptide was quantified as described in FIG. 14. Background activity was subtracted from each point. Values (mean) represent data from two experiments for sphingomyelin performed in triplicate, three experiments for ceramide performed in triplicate, and five experiments for ceramide-activated protein kinase activity performed in duplicate.
Early kinetics of activation of a potential signaling system provide some support that the pathway might be involved in the signaling process. However, signal transduction pathways are highly regulated and often interrelated. […] To provide additional support for tight coupling of the sphingomyelin pathway to activation of the IL-1β receptor, studies were performed with subcellular fractions derived from EL-4 cells. For these studies, supernates, collected after a low-speed centrifugation to remove nuclei, were first incubated with IL-1β for 10 minutes at 4° C. to permit formation of IL-1 receptor complexes. Thereafter, reactions were initiated by warming supernates to 22° C. in a reaction mixture containing Mg^2+ at pH 7.4. These conditions were adopted to allow for activation of endogenous neutral sphingomyelinase. For studies measuring kinase activity, reaction mixtures also contained [^32 P] ATP and EGFR peptide. […] In separate studies, a statistically significant reduction in sphingomyelin content (n=10) and elevation in ceramide content (n=6) were detected at 1 minute of stimulation (p<0.005 vs. control). […] These effects were quantitatively similar to those determined in the intact cells.

protein kinase C = assay: Protein kinase C activity in EL-4 cells (lysine-rich histone phosphorylation); type: cell-based, murine (EL-4 cells); conditions: membrane or cytosolic fractions
[1] = tested on: ceramide-activated protein kinase; assay: Ceramide-activated protein kinase activity (EGFR peptide) in EL-4 cell fractions
Procedure: Effect of IL-1β on ceramide-activated protein kinase activity. […] Homogenates were centrifuged at 500×g for 5 minutes to remove nuclei and at 200,000×g for 30 minutes to prepare microsomal membranes. Membranes were resuspended into homogenizing buffer (2.2 μg membrane protein μl^-1). For assay of kinase activity, the reaction mixture contained 20 μl of microsomal membrane, 40 μl EGFR peptide (4 mg ml^-1 in 25 mM Hepes, pH 7.4) and 100 μl buffer (50 mM HEPES, pH 7.4, 20 mM MgCl2). Phosphorylation was initiated at 22° C. by addition of 40 μl [γ-^32 P] ATP (100 μM final concentration) and terminated at the indicated times by addition of 40 μl of 0.5 M ATP in 90% formic acid. Phosphorylated peptide was eluted from a C18 Sep pak cartridge (Millipore), lyophilized, and resolved by C18 reverse phase HPLC using a linear gradient of acetonitrile. […] All assays were performed under conditions determined as linear for time and enzyme concentration. Enzyme activity was determined from the percent conversion of substrate to product and the specific radioactivity of [γ-^32 P] ATP. […] Values (mean±range) represent duplicate determinations from two experiments.
Activity was measured by the transfer of ^32 P from the γ-position of ATP to EGFR peptide (AA 663-681 of the EGFR). The effect of IL-1β on kinase activity was determined using microsomal membranes derived from cells stimulated with IL-1β.

[2] = p<0.005 vs. control at 1 minute

Substance: IL-1β: Human IL-1β
- IL-2 secretion in combination with TPA (EL4 cells; 24 h): stimulated secretion maximally
- IL-2 secretion, +TPA (EL4 cells; with TPA 20 ng ml^-1, 24 h, nd = not detectable, mean ± range): 261 ± 2
- ED50 (sphingomyelin hydrolysis) (EL-4 cells; 30 minutes): ≈ 2 ng ml^-1
- concentration of maximal effect (sphingomyelin hydrolysis) (EL-4 cells; 30 minutes): 10 ng/mL
- effective concentration (sphingomyelin hydrolysis) (EL-4 cells; 30 minutes): 0.01 ng/mL
- content of phosphatidylcholine (EL-4 cells; IL-1β): unchanged
- onset of reduction in sphingomyelin content (EL-4 cells; IL-1β 40 ng ml^-1): ≤ 2 min
- ceramide content (EL-4 cells; IL-1β 40 ng ml^-1, 2 minutes, from 360, p<0.005): 403 pmol 10^6 cells^-1
- maximum ceramide content (EL-4 cells; IL-1β 40 ng ml^-1, 15 minutes, from 360): 450 pmol 10^6 cells^-1
- sphingomyelin content (EL-4 cells; IL-1β 40 ng ml^-1, 30 minutes, baseline 800±14, mean±SEM, p<0.005): 648±16 pmol 10^6 cells^-1
- onset of ceramide increase (EL-4 cells; separate studies (n=4)): ≤ 30 s
- ceramide generation (YT cells): rapid generation of ceramide
- ceramide-activated protein kinase activity, cell-free (sphingomyelin pathway): increased
- ceramide content, cell-free (sphingomyelin pathway; [2]): quantitative increase in ceramide content
- sphingomyelin content, cell-free (sphingomyelin pathway; [2]): rapid reduction in sphingomyelin content
- protein kinase C activity (protein kinase C): not enhanced
- ED50 (kinase activity) [1]: ≈ 2 ng ml^-1
- concentration of maximal effect (kinase activity) [1]: 10 ng/mL
- effective concentration (kinase activity) [1]: 0.03 ng/mL
- onset of increase in kinase activity ([1]; IL-1β 10 ng ml^-1): 30 s
- time of maximal kinase activity ([1]; IL-1β 10 ng ml^-1): 2 min
- kinase activity ([1]; IL-1β 10 ng ml^-1, from 5): 11 pmol/min/mg
- kinase activity, fold of control ([1]; IL-1β 10 ng ml^-1, microsomal membranes, p<0.005): 2.1 fold of control
- cytosolic kinase activity toward EGFR peptide ([1]; cytosolic fractions): not enhanced
